Experimental data published in patent US20220296676A1 (priority 2020, published 2022).

Tests used:
in vitro [1] = conditions: human
[2] = system: human coronavirus (HCoV) 229E; assay: microbe, parasite or virus in culture; conditions: MRC5, 72 h
in vitro [3] = conditions: human; remark: listed apart in the source

Row | Structure (SMILES) | CC50 (in vitro [1]) [µM] | EC50 [2] [µM] | CC50 at 3 days (in vitro [3]) [µM] | CC50 (in vitro [3]) [µM]
1 | C/C=C/C[C@@H](C)[C@@H](O)[C@H]1C(=O)N[C@@H](CC)C(=O)N(C)[C@H](SCCN(C)C)C(=O)N(C)[C@@H](CC(C)(C)O)C(=O)N[C@@H](C(C)C)C(=O)N(C)[C@@H](CC(C)C)C(=O)N[C@@H](C)C(=O)N[C@H](C)C(=O)N(C)[C@@H](CC(C)C)C(=O)N(C)[C@@H](CC(C)C)C(=O)N(C)[C@@H](C(C)C)C(=O)N1C [WS-635] | > 100 | 5.16 | 46.8 | –
2 | CCC(CC)COC(=O)[C@H](C)N[P@](=O)(OC[C@H]1O[C@@](C#N)(c2ccc3c(N)ncnn23)[C@H](O)[C@@H]1O)Oc1ccccc1 [Remdesivir, reference compound] | – | 0.03 | – | 49.2
